Reference: patent US10479780B2, “Aminopyrazole derivatives” (Chugai Seiyaku Kabushiki Kaisha, priority 2015, dated 2019)
Like-named read-outs stand apart in the source and are kept apart here.

Columns and labels:
Type in all cases: biochemical
[1] = biological target: T1, human Yes1 enzyme (Homo sapiens, UniProt P07947); test: Yes1 enzyme inhibitory activity (time-resolved fluorometry, biotinylated peptide phosphorylation); settings: read-out: YES_IC50
T1 construct: made in house
Outline: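 Inhibition was expressed against a compound-free control to give IC50, using TR-FRET read-out (Eu-cryptate anti-pTyr antibody, streptavidin-XL665).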

[2] = biological target: T2, human Src enzyme (Homo sapiens, UniProt P12931); test: Src enzyme inhibitory activity (time-resolved fluorometry, biotinylated peptide phosphorylation); settings: read-out: SRC_IC50
T2 construct: purchased Carna Biosciences, Inc. 08-173
Outline: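 Compounds were tested for blocking tyrosine phosphorylation of a biotinylated peptide substrate by recombinant human Src. Phosphorylated product was quantified by time-resolved fluorometry using europium cryptate and XL665 conjugates, and IC50 was calculated against the compound-free control.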

[3] = biological target: T3, human Lck enzyme (Homo sapiens, UniProt P06239); test: Lck enzyme inhibitory activity (time-resolved fluorometry, biotinylated peptide phosphorylation); settings: read-out: LCK_IC50
T3 construct: purchased Carna Biosciences, Inc. 08-170
Outline: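 Readout pairs a europium cryptate-labelled anti-phosphotyrosine antibody with XL665-streptavidin, measured by time-resolved fluorescence. IC50 derived from percent inhibition against untreated controls.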

[4] = biotinylated peptide phosphorylation

T3 sequence (P06239 whole entry): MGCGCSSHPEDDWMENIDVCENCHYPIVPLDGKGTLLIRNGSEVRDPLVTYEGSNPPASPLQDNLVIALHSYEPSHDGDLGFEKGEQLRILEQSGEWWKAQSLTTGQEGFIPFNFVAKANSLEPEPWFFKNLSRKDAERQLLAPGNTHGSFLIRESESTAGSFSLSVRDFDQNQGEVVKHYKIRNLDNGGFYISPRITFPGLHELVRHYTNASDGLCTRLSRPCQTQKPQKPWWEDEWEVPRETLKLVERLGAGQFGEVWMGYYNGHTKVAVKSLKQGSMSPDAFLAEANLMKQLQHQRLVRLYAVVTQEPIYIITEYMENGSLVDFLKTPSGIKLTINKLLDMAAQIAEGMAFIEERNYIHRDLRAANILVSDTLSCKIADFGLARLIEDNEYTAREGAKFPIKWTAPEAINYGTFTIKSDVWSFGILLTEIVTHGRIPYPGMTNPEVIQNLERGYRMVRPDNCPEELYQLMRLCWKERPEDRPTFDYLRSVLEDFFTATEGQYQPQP
T2 sequence (P12931 whole entry): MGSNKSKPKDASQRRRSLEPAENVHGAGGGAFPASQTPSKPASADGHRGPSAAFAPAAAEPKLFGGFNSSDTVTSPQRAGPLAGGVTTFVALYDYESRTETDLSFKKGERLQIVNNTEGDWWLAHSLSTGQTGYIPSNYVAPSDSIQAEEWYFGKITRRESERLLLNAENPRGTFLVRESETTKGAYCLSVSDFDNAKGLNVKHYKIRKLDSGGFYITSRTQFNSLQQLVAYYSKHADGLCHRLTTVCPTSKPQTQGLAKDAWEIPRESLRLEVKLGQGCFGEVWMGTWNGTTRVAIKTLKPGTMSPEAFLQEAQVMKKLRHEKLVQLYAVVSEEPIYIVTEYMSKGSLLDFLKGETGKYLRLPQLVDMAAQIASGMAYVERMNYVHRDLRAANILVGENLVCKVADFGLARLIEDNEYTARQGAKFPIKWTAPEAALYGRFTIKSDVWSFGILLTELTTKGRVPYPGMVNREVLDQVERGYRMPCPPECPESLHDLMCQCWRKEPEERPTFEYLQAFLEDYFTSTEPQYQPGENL
T1 sequence (P07947 whole entry): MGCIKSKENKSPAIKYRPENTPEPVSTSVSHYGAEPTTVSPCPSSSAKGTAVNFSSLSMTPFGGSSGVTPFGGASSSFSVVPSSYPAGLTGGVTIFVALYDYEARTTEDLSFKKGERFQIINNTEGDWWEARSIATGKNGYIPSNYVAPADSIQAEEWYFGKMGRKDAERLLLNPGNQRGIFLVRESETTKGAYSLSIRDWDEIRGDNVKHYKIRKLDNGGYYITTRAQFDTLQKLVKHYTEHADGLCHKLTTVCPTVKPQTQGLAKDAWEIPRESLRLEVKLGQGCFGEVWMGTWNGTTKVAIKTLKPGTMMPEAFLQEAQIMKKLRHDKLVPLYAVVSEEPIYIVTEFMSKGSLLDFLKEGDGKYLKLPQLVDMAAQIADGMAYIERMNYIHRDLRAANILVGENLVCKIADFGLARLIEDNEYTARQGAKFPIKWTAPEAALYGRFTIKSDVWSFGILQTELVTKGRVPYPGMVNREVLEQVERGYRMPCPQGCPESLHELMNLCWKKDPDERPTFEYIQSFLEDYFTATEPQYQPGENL

SMILES | IC50 [1] [nM] | IC50 [2] [nM] | IC50 [3] [nM] | IC50 [1, 4] [nM] | IC50 [2, 4] [nM] | IC50 [3, 4] [nM]
Cc1cc2cc(C(=O)c3cnn(-c4ccc(Oc5ccccc5F)cc4C)c3N)[nH]c2cc1N1C(=O)NC2(CCN(C3COC3)CC2)C1=O [Example 5-1-391, 3-(2-(5-amino-1-(4-(2-fluorophenoxy)-2-methylphenyl)-1H-pyrazole-4-carbonyl)-5-methyl-1H-indol-6-yl)-8-(oxetan-3-yl)-1,3,8-triazaspiro[4.5]decane-2,4-dione] | 1.3 | 11 | 5.5 | – | – | –
Cc1cc2cc(C(=O)c3cnn(-c4ccc(Oc5ccccc5F)cc4C)c3N)[nH]c2cc1N1C(=O)NC2(CCN(Cc3ccccc3)CC2)C1=O [Example 5-1-392, 3-[2-[5-amino-1-[4-(2-fluorophenoxy)-2-methylphenyl]pyrazole-4-carbonyl]-5-methyl-1H-indol-6-yl]-8-benzyl-1,3,8-triazaspiro[4.5] decane-2,4-dione] | 2.9 | 89 | 14 | – | – | –
Cc1cc2cc(C(=O)c3cnn(-c4ccc(Oc5ccccc5F)cc4C)c3N)[nH]c2cc1N1C(=O)NC2(CCN(C3COC3)C2)C1=O (stereo not drawn) [Example 5-1-393, 3-[2-[5-amino-1-[4-(2-fluorophenoxy)-2-methylphenyl]pyrazole-4-carbonyl]-5-methyl-1H-indol-6-yl]-7-(oxetan-3-yl)-1,3,7-triazaspiro [4.4]nonane-2,4-dione] | 1 | 9.8 | 4.6 | – | – | –
Cc1cc2cc(C(=O)c3cnn(-c4ccc(Oc5ccccc5F)cc4C)c3N)[nH]c2cc1N1C(=O)NC2(CCN(Cc3ccccc3)C2)C1=O (stereo not drawn) [Example 5-1-394, 3-[2-[5-amino-1-[4-(2-fluorophenoxy)-2-methylphenyl]pyrazole-4-carbonyl]-5-methyl-1H-indol-6-yl]-7-benzyl-1,3,7-tnazaspiro[4.4] nonane-2,4-dione] | 2.9 | 93 | 21 | – | – | –
Cc1cc(Oc2c(F)cccc2F)ncc1-n1ncc(C(=O)c2cc3cc(F)c(N4CC(C)(C)NS4(=O)=O)cc3[nH]2)c1N [Example 5-1-398, [5-amino-1-[6-(2,6-difluorophenoxy)-4-methylpyridin-3-yl]pyrazol-4-yl]-[6-(4,4-dimethyl-1,1-dioxo-1,2,5-thiadiazolidin-2-yl)-5-fluoro-1H-indol-2-yl]methanone] | 2.4 | 95 | 20 | – | – | –
Cc1cc(Oc2c(F)cccc2F)ncc1-n1ncc(C(=O)c2cc3cc(F)c(N4CC5(CCCC5)NS4(=O)=O)cc3[nH]2)c1N [Example 5-1-399, [5-amino-1-[6-(2,6-difluorophenoxy)-4-methylpyridin-3-yl]pyrazol-4-yl]-[6-(2,2-dioxo-2λ6-thia-1,3-diazaspiro[4.4]nonan-3-yl)-5-fluoro-1H-indol-2-yl]methanone] | – | – | – | 5.7 | 250 | 53
Cc1cc(Oc2c(F)cccc2F)ncc1-n1ncc(C(=O)c2cc3cc(F)c(N4CC5(CCOCC5)NS4(=O)=O)cc3[nH]2)c1N [Example 5-1-400, [5-amino-1-[6-(2,6-difluorophenoxy)-4-methylpyridin-3-yl]pyrazol-4-yl]-[6-(2,2-dioxo-8-oxa-2λ6-thia-13-diazaspiro[4.5]decan-3-yl)-5-fluoro-1H-indol-2-yl]methanone] | – | – | – | 2.1 | 76 | 14
Cc1cc(Oc2ccccc2F)ncc1-n1ncc(C(=O)c2cc3cc(OC(F)F)c(N4C(=O)NC(C)(C)C4=O)cc3[nH]2)c1N [Example 5-1-402, 3-[2-[5-amino-1-[6-(2-fluorophenoxy)-4-methylpyridin-3-yl]pyrazole-4-carbonyl]-5-(difluoromethoxy)-1H-indol-6-yl]-5,5-dimethylimidazolidine-2,4-dione] | – | – | – | 1.8 | 63 | 8.2
Cc1cc2cc(C(=O)c3cnn(-c4cnc(Oc5c(F)cccc5F)cc4C)c3N)[nH]c2cc1N1C(=O)NC2(COC2)C1=O [Example 5-1-404, 7-[2-[5-amino-1-[6-(2,6-difluorophenoxy)-4-methylpyridin-3-yl]pyrazole-4-carbonyl]-5-methyl-1H-indol-6-yl]-2-oxa-5,7-diazaspiro[3.4] octane-6,8-dione] | – | – | – | 1.7 | 48 | 2.6
Cc1cc(Oc2c(F)cccc2F)ncc1-n1ncc(C(=O)c2cc3cc(F)c(N4C(=O)CNC4=O)cc3[nH]2)c1N [Example 5-1-405, 3-[2-[5-amino-1-[6-(2,6-difluorophenoxy)-4-methylpyridin-3-yl]pyrazole-4-carbonyl]-5-fluoro-1H-indol-6-yl]imidazolidine-2,4-dione] | – | – | – | 2.7 | 66 | 3.2
Cc1cc(Oc2c(F)cccc2F)ncc1-n1ncc(C(=O)c2cc3cc(F)c(N4C(=O)N[C@@H](C)C4=O)cc3[nH]2)c1N [Example 5-1-406, (5S)-3-[2-[5-amino-1-[6-(2,6-difluorophenoxy)-4-methylpyridin-3-yl]pyrazole-4-carbonyl]-5-fluoro-1H-indol-6-yl]-5-methylimidazolidine-2,4-dione] | – | – | – | 2.2 | 75 | 3.1
Cc1cc(Oc2c(F)cccc2F)ncc1-n1ncc(C(=O)c2cc3cc(F)c(N4C(=O)N[C@@H](CO)C4=O)cc3[nH]2)c1N [Example 5-1-407, (5S)-3-[2-[5-amino-1-[6-(2,6-difluorophenoxy)-4-methylpyridin-3-yl]pyrazole-4-carbonyl]-5-fluoro-1H-indol-6-yl]-5-(hydroxymethyl) imidazolidine-2,4-dione] | – | – | – | 2.2 | 74 | 3.5
Cc1cc2cc(C(=O)c3cnn(-c4ccc(Oc5ccccc5F)cc4C)c3N)[nH]c2cc1N1C(=O)NC2(CCOCC2)C1=O [Example 5-1-408, 3-[2-[5-amino-1-[4-(2-fluorophenoxy)-2-methylphenyl]pyrazole-4-carbonyl]-5-methyl-1H-indol-6-yl]-8-oxa-1,3-diazaspiro[4.5] decane-2,4-dione] | – | – | – | 1.2 | 43 | 6.1
Cc1cc2cc(C(=O)c3cnn(-c4ccc(Oc5ccccc5F)cc4C)c3N)[nH]c2cc1N1C(=O)NC2(CCCCC2)C1=O [Example 5-1-409, 3-[2-[5-amino-1-[4-(2-fluorophenoxy)-2-methylphenyl]pyrazole-4-carbonyl]-5-methyl-1H-indol-6-yl]-1,3-diazaspiro[4.5]decane-2,4-dione] | – | – | – | 3.1 | 160 | 20

Results, then the compound that gave them:

IC50 [1] [nM] | IC50 [2] [nM] | IC50 [3] [nM] | IC50 [1, 4] [nM] | IC50 [2, 4] [nM] | IC50 [3, 4] [nM] | SMILES
1.4 | 24 | 18 | – | – | – | Cc1cc(Oc2ccccc2F)ccc1-n1ncc(C(=O)c2cc3cc(F)c(NS(=O)(=O)C4CCOCC4)cc3[nH]2)c1N [Example 5-1-389, N-[2-[5-amino-1-[4-(2-fluorophenoxy)-2-methylphenyl]pyrazole-4-carbonyl]-5-fluoro-1H-indol-6-yl]oxane-4-sulfonamide]
1.9 | 44 | 25 | – | – | – | Cc1cc(Oc2ccccc2F)ccc1-n1ncc(C(=O)c2cc3cc(OC(F)F)c(NS(=O)(=O)C4CCOCC4)cc3[nH]2)c1N [Example 5-1-390, N-[2-[5-amino-1-[4-(2-fluorophenoxy)-2-methylphenyl]pyrazole-4-carbonyl]-5-(difluoromethoxy)-1H-indol-6-yl]oxane-4-sulfonamie]
4.8 | 210 | 66 | – | – | – | Cc1cc(Oc2c(F)cccc2F)ncc1-n1ncc(C(=O)c2cc3cc(C4CC4)c(NS(=O)(=O)C4CCOCC4)cc3[nH]2)c1N [Example 5-1-395, N-[2-[5-amino-1-[6-(2,6-difluorophenoxy)-4-methylpyridin-3-yl]pyrazole-4-carbonyl]-5-cyclopropyl-1H-indol-6-yl]oxane-4-sulfonamide]
3.6 | 230 | 68 | – | – | – | Cc1cc(Oc2ccccc2F)ncc1-n1ncc(C(=O)c2cc3cc(C4CC4)c(NS(=O)(=O)C4CCOCC4)cc3[nH]2)c1N [Example 5-1-396, N-[2-[5-amino-1-[6-(2-fluorophenoxy)-4-methylpyridin-3-yl]pyrazole-4-carbonyl]-5-cyclopropyl-1H-indol-6-yl]oxane-4-sulfonamide]
1.8 | 90 | 31 | – | – | – | Cc1cc(Oc2ccccc2F)ccc1-n1ncc(C(=O)c2cc3cc(C4CC4)c(NS(=O)(=O)C4CCOCC4)cc3[nH]2)c1N [Example 5-1-397, N-[2-[5-amino-1-[4-(2-fluorophenoxy)-2-methylphenyl]pyrazole-4-carbonyl]-5-cyclopropyl-1H-indol-6-yl]oxane-4-sulfonamide]
– | – | – | 2.5 | 140 | 41 | Cc1cc(Oc2ccccc2F)ncc1-n1ncc(C(=O)c2cc3cc(OC(F)F)c(NS(=O)(=O)C4CCOCC4)cc3[nH]2)c1N [Example 5-1-401, N-[2-[5-amino-1-[6-(2-fluorophenoxy)-4-methylpyridin-3-yl]pyrazole-4-carbonyl]-5-(difluoromethoxy)-1H-indol-6-yl]oxane-4-sulfonamide]
– | – | – | 0.98 | 88 | 8.6 | Cc1cc(Oc2ccccc2F)ccc1-n1ncc(C(=O)c2cc3cc(F)c(N4CC5(CCOCC5)NS4(=O)=O)cc3[nH]2)c1N [Example 5-1-403, [5-amino-1-[4-(2-fluorophenoxy)-2-methylphenyl]pyrazol-4-yl]-[6-(2,2-dioxo-8-oxa-2λ6-thia-1.3-diazaspiro[4.5]decan-3-yl)-5-fluoro-1H-indol-2-yl]methanone]
